Target: T1, double mutant IDE (Gln363Ala, His332Ala) (Homo sapiens, UniProt P14735, H332A/Q363A)
T1 construct: made in house; host or cells: E. coli (BL21 inferred, as for the wild type)
T1 sequence (P14735 1-1019 H332A/Q363A): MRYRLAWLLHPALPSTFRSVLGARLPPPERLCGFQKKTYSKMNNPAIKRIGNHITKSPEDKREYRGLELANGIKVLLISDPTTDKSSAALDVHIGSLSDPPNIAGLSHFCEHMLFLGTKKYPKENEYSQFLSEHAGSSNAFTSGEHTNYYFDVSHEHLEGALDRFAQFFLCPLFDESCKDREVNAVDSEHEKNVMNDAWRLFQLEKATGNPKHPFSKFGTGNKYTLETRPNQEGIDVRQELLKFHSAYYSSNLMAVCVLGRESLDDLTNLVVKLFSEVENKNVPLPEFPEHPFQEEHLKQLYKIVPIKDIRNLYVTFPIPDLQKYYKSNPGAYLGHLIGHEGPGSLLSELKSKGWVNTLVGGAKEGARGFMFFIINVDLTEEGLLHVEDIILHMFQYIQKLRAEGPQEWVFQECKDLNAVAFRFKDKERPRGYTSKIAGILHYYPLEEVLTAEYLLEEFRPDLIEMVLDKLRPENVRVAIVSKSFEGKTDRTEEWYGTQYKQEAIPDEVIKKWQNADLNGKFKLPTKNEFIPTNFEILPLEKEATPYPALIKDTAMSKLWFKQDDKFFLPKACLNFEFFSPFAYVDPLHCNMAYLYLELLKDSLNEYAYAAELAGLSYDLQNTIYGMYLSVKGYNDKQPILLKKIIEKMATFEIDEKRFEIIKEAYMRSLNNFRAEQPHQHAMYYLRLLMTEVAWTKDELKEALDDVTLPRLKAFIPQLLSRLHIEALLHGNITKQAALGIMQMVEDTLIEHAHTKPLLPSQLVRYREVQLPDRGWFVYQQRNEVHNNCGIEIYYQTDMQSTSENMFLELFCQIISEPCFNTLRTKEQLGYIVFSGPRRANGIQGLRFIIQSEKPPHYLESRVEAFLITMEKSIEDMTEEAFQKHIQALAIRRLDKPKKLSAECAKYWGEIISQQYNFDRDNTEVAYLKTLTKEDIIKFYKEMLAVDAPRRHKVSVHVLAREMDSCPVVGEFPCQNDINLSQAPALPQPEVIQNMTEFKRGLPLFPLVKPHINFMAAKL
Assay: FITC-insulin-mAb degradation by double mutant IDE (Gln363Ala, His332Ala)
Type: biochemical
Conditions: 20 µM D10
Excerpt: Since D10 has been found as the strongest activator of IDE towards the proteolysis of insulin, we analyzed the binding site of the compound D10 for the further analysis. According to the computational results, D10 binds to Gln363 at the IDE exosite and His332 (Fig. 1D). We carried out site-directed mutagenesis by replacing these amino acids into Ala in order to verify that D10 indeed binds to this region via these amino acids. We first mutated Gln363 to Ala and then expressed and purified mutant protein through nickel resin. The effect of D10 on the proteolytic activity of mutant IDE (Gln363Ala) was measured towards FITC-insulin-mAb degradation. […] The activation was about 49-fold in the presence of D10 with wild type IDE (Fig. 2B). Although mutant IDE activity was less responsive to D10 compound compared to wild type IDE, it appeared as if D10 were interacting with IDE through […] and could enhance the activity of mutant IDE. […]
The utility of these novel compounds were tested on degradation of insulin by IDE. […] The proteolysis of insulin by IDE was monitored by measuring the changes in fluorescence, where the reaction was carried out with 100 nM of FITC- insulin-mAb and IDE (80 ng) in 100 µl KH2PO4 buffer at a pH of 7.3. […] The increase in fluorescence was monitored by using Fluoroskan Ascent FL microplate reader (Thermo).

With Cc1nn(-c2ccccc2)c2nc(-c3cccc([N+](=O)[O-])c3)n3c4ccccc4nc3c2c1=O [Compound D10] the “binding to exosite of double mutant IDE” value was “could not bind to IDE exosite”.

From paper PMC3280214, “Structure Based Discovery of Small Molecules to Regulate the Activity of Human Insulin Degrading Enzyme” (PLoS ONE, 2012)
